From PMC9780108, “An intrinsically disordered antimicrobial peptide dendrimer from stereorandomized virtual screening” (Cell Reports. Physical Science, 2022)
Values after ≈ are worked out from the molar mass of the structure shown. Positions of bridges follow the written chain, without caps; N, C: chain ends. Non-standard residues stand in square brackets, D forms with d. Residues, ends and D or L forms follow the SMILES beside them. Groups on a side chain read outwards from the residue. Chains are numbered I, II in the order given. *: point of attachment. X4 = CC(C)C[C@@H](NC(=O)CCCCCN)C(=O)NCCCC[C@@H](NC(=O)[C@@H](CC(C)C)NC(=O)CCCCCN)C(=O)*; Ahx = NCCCCCC(=O)O

Key:
[1] = test system: P. aeruginosa PAO1; conditions: for MIC at pH 5.0, P. aeruginosa PAO1: PAO1, pH 5; for MIC at pH 7.4, P. aeruginosa PAO1: PAO1, pH 7.4; for MIC at pH 8.0, P. aeruginosa PAO1: PAO1, pH 8
[2] = test system: S aureus COL (methicillin-resistant Staphylococcus aureus); conditions: for MIC at pH 5.0, S aureus COL: COL (methicillin-resistant, pH 5); for MIC at pH 7.4, S aureus COL: COL (methicillin-resistant, pH 7.4); for MIC at pH 8.0, S aureus COL: COL (methicillin-resistant, pH 8)
[3] = test system: HEK293 cell line; type: cell-based; conditions: 48 h
Description: HEK 293 cell line were cultured and maintained in DMEM (Dulbeccos modified Eagle
medium, Sigma Aldrich) supplemented with 10% FBS (Sigma Aldrich) and 1%
penicillin/streptomycin. Cells were incubated in a humidified incubator at 37°C in the presence
HEK 293 cell were seeded into 96 well plates at the density of 2 × 10^3 cells/well and incubated
in DMEM containing 10% FBS for 10-14 hours at 37°C in the presence of 5% CO2. The next
day, stock solution of compounds were prepared at concentration of 2 mg/mL in DMEM
containing 10% FBS. 1/2 or 1/3 serial dilution of the peptide dendrimers from 2 mg/mL or 200
µg/mL were performed in DMEM containing 10% FBS. The medium was removed from cell
culture and replaced with the compounds at different concentration after washing with PBS.
The cells were incubated in DMEM containing 10% FBS at 37°C in the presence of 5% CO 2.
Negative control was untreated cell culture without compounds and blank control was wells
without cell but only medium. After 48 hours, a final concentration of 10% AlamarBlue®
(Thermo Fisher Scientific, Reinach, CH) was added to each well . The cells were incubated for
3-5 hours at 37°C with 5% CO 2. The fluorescence was then measured on a Tecan Infinite
M1000 Pro plate reader at λex = 560 nm and λem = 590 nm. The value was normalized
according to the untreated cells.

[4] = test system: K. pneumoniae NCTC 418; conditions: for MIC at pH 5.0, K. pneumoniae NCTC 418: NCTC 418, pH 5; for MIC at pH 7.4, K. pneumoniae NCTC 418: NCTC 418, pH 7.4; for MIC at pH 8.0, K. pneumoniae NCTC 418: NCTC 418, pH 8
[5] = test system: A. baumannii ATCC 19606; conditions: for MIC at pH 5.0, A. baumannii ATCC 19606: ATCC 19606, pH 5; for MIC at pH 7.4, A. baumannii ATCC 19606: ATCC 19606, pH 7.4; for MIC at pH 8.0, A. baumannii ATCC 19606: ATCC 19606, pH 8
[6] = test system: E. coli W3110; conditions: for MIC at pH 5.0, E. coli W3110: W3110, pH 5; for MIC at pH 7.4, E. coli W3110: W3110, pH 7.4; for MIC at pH 8.0, E. coli W3110: W3110, pH 8

SMILES	MIC at pH 5.0, P. aeruginosa PAO1 [1]	MIC at pH 7.4, P. aeruginosa PAO1 [1]	MIC at pH 8.0, P. aeruginosa PAO1 [1]	MIC at pH 5.0, S aureus COL [2]	MIC at pH 7.4, S aureus COL [2]	MIC at pH 8.0, S aureus COL [2]	IC50 HEK293 [3]	MIC at pH 5.0, K. pneumoniae NCTC 418 [4]	MIC at pH 7.4, K. pneumoniae NCTC 418 [4]	MIC at pH 8.0, K. pneumoniae NCTC 418 [4]	MIC at pH 5.0, A. baumannii ATCC 19606 [5]	MIC at pH 7.4, A. baumannii ATCC 19606 [5]	MIC at pH 8.0, A. baumannii ATCC 19606 [5]	MIC at pH 5.0, E. coli W3110 [6]	MIC at pH 7.4, E. coli W3110 [6]	MIC at pH 8.0, E. coli W3110 [6]
CC(C)C[C@@H](NC(=O)CCCCCN)C(=O)NCCCC[C@@H](NC(=O)[C@@H](CC(C)C)NC(=O)CCCCCN)C(=O)N[C@H](CC(C)C)C(=O)NCCCC[C@@H](NC(=O)[C@@H](CC(C)C)NC(=O)[C@@H](CCCCNC(=O)[C@@H](CC(C)C)NC(=O)CCCCCN)NC(=O)[C@@H](CC(C)C)NC(=O)CCCCCN)C(=O)N[C@H](CCCCN)C(=O)N[C@H](CC(C)C)C(=O)N[C@H](CC(C)C)C(=O)NCCCC[C@@H](NC(=O)[C@@H](CC(C)C)NC(=O)[C@@H](CC(C)C)NC(=O)[C@@H](CCCCN)NC(=O)[C@@H](CCCCNC(=O)[C@@H](CC(C)C)NC(=O)[C@@H](CCCCNC(=O)[C@@H](CC(C)C)NC(=O)CCCCCN)NC(=O)[C@@H](CC(C)C)NC(=O)CCCCCN)NC(=O)[C@@H](CC(C)C)NC(=O)[C@@H](CCCCNC(=O)[C@@H](CC(C)C)NC(=O)CCCCCN)NC(=O)[C@@H](CC(C)C)NC(=O)CCCCCN)C(=O)N[C@H](CC(C)C)C(=O)N[C@H](CCCCN)C(=O)N[C@H](CCCCN)C(N)=O [D-aX22] (I: H-[Ahx][dL][dK]([dL-Ahx])[dL][dK]([dL-X4])[dK][dL][dL][dK][dL][dK][dK]-NH2 / II: H-[Ahx][dL][dK]([dL-Ahx])[dL][dK]([dL-X4])[dK][dL][dL]; amide I:9-II:C)	32 μg/mL	8 μg/mL	16 μg/mL	> 64 μg/mL	16 μg/mL	4 μg/mL	17 ± 2 µg/mL (≈ 3.99 µM)	64 μg/mL	16 μg/mL	16 μg/mL	4/4/4 μg/mL	4/4/4 μg/mL	4/4/4 μg/mL	4 μg/mL	8 μg/mL	4 μg/mL
CC(C)C[C@H](NC(=O)[C@H](CC(C)C)NC(=O)[C@H](CCCCN)NC(=O)[C@H](CCCCNC(=O)[C@H](CC(C)C)NC(=O)[C@H](CC(C)C)NC(=O)[C@H](CCCCNC(=O)[C@H](CC(C)C)NC(=O)[C@H](CCCCN)NC(=O)[C@H](CCCCNC(=O)[C@H](CC(C)C)NC(=O)[C@@H](N)CCCCN)NC(=O)[C@H](CC(C)C)NC(=O)[C@@H](N)CCCCN)NC(=O)[C@H](CC(C)C)NC(=O)[C@H](CCCCN)NC(=O)[C@H](CCCCNC(=O)[C@H](CC(C)C)NC(=O)[C@@H](N)CCCCN)NC(=O)[C@H](CC(C)C)NC(=O)[C@@H](N)CCCCN)NC(=O)[C@H](CC(C)C)NC(=O)[C@H](CC(C)C)NC(=O)[C@H](CCCCNC(=O)[C@H](CC(C)C)NC(=O)[C@H](CCCCN)NC(=O)[C@H](CCCCNC(=O)[C@H](CC(C)C)NC(=O)[C@@H](N)CCCCN)NC(=O)[C@H](CC(C)C)NC(=O)[C@@H](N)CCCCN)NC(=O)[C@H](CC(C)C)NC(=O)[C@H](CCCCN)NC(=O)[C@H](CCCCNC(=O)[C@H](CC(C)C)NC(=O)[C@@H](N)CCCCN)NC(=O)[C@H](CC(C)C)NC(=O)[C@@H](N)CCCCN)C(N)=O [L-T25, reference compound] (HELM PEPTIDE1{K.L.K.K.L.K.L.L.K.K.L.L.[am]}|PEPTIDE2{K.L}|PEPTIDE3{K.L.K.K.L.K.L.L}|PEPTIDE4{K.L}|PEPTIDE5{K.L.K.K.L}|PEPTIDE6{K.L}|PEPTIDE7{K.L.K.K.L}|PEPTIDE8{K.L}$PEPTIDE1,PEPTIDE2,3:R3-2:R2|PEPTIDE3,PEPTIDE4,3:R3-2:R2|PEPTIDE5,PEPTIDE6,3:R3-2:R2|PEPTIDE7,PEPTIDE8,3:R3-2:R2|PEPTIDE1,PEPTIDE7,6:R3-5:R2|PEPTIDE1,PEPTIDE3,9:R3-8:R2|PEPTIDE3,PEPTIDE5,6:R3-5:R2$$$V2.0)	32 μg/mL	8 μg/mL	8 μg/mL	> 64 μg/mL	> 64 μg/mL	32 μg/mL	92 ± 3 µg/mL (≈ 19.9 µM)	> 64 μg/mL	32 μg/mL	16 μg/mL	16 μg/mL	4 μg/mL	4 μg/mL	32 μg/mL	8 μg/mL	8 μg/mL
CC(C)C[C@H](NC(=O)[C@H](CC(C)C)NC(=O)[C@H](CC(C)C)NC(=O)[C@H](CCCCNC(=O)[C@H](CC(C)C)NC(=O)[C@H](CC(C)C)NC(=O)[C@H](CCCCNC(=O)[C@H](CCCCN)NC(=O)[C@H](CC(C)C)NC(=O)[C@H](CCCCNC(=O)[C@H](CC(C)C)NC(=O)[C@@H](N)CCCCN)NC(=O)[C@H](CC(C)C)NC(=O)[C@@H](N)CCCCN)NC(=O)[C@H](CCCCN)NC(=O)[C@H](CC(C)C)NC(=O)[C@H](CCCCNC(=O)[C@H](CC(C)C)NC(=O)[C@@H](N)CCCCN)NC(=O)[C@H](CC(C)C)NC(=O)[C@@H](N)CCCCN)NC(=O)[C@H](CC(C)C)NC(=O)[C@H](CC(C)C)NC(=O)[C@H](CCCCNC(=O)[C@H](CCCCN)NC(=O)[C@H](CC(C)C)NC(=O)[C@H](CCCCNC(=O)[C@H](CC(C)C)NC(=O)[C@@H](N)CCCCN)NC(=O)[C@H](CC(C)C)NC(=O)[C@@H](N)CCCCN)NC(=O)[C@H](CCCCN)NC(=O)[C@H](CC(C)C)NC(=O)[C@H](CCCCNC(=O)[C@H](CC(C)C)NC(=O)[C@@H](N)CCCCN)NC(=O)[C@H](CC(C)C)NC(=O)[C@@H](N)CCCCN)C(N)=O [L-X18] (HELM PEPTIDE1{K.L.K.L.K.K.L.L.K.L.L.L.[am]}|PEPTIDE2{K.L}|PEPTIDE3{K.L.K.L.K.K.L.L}|PEPTIDE4{K.L}|PEPTIDE5{K.L.K.L.K}|PEPTIDE6{K.L}|PEPTIDE7{K.L.K.L.K}|PEPTIDE8{K.L}$PEPTIDE1,PEPTIDE2,3:R3-2:R2|PEPTIDE3,PEPTIDE4,3:R3-2:R2|PEPTIDE5,PEPTIDE6,3:R3-2:R2|PEPTIDE7,PEPTIDE8,3:R3-2:R2|PEPTIDE1,PEPTIDE7,6:R3-5:R2|PEPTIDE1,PEPTIDE3,9:R3-8:R2|PEPTIDE3,PEPTIDE5,6:R3-5:R2$$$V2.0)	16 μg/mL	32 μg/mL	16 μg/mL	> 64 μg/mL	> 64 μg/mL	16 μg/mL	52 ± 4 µg/mL (≈ 11.3 µM)	> 64 μg/mL	> 64 μg/mL	32 μg/mL	16 μg/mL	32 μg/mL	16 μg/mL	16/16/16 μg/mL	16/16/16 μg/mL	16/16/16 μg/mL
